Data taken from patent US20250018066A1, “Ophthalmic dye composition” (Vitreq B.V., priority 2016, published 2025).

Experiments:
[1] = Viscosity of dye solutions; format: physicochemical
Method: (§1) Density and viscosity can be changed by the addition of diglycerol or a gadolinium complex or a combination of both. For sinking of the dye solution to the bottom of the eye, density is more important than viscosity; the latter reduces, however, possible mixing for solutions which sink slowly. The density of dye solutions can be increased from 1.003 grams per milliliter (at 25° C.) to 1.028, when 10 volume % of a 0.5 M solution of gadopentetate is added to a final concentration of gadopentetate of 0.05 M, and to 1.048 when 20 volume % of a 0.5 M solution of gadopentetate is added to a final concentration of 0.10 M. The resulting viscosities are 1.125 mPa·s and 1.258 mPa·s, respectively. For a 5% addition of named gadopentetate solution, a density of 1.016 gram per milliliter and a viscosity of 1.117 mPa·s is obtained.

Density of dye solutions = format: physicochemical
Method: as §1

[2] = Osmotic pressure contribution of density-increasing agent; format: physicochemical; conditions: in words
retina = test: Staining of porcine retina with dye preparations, contrast quantified from photographs; conditions: in words; compared with prior art agents like PEG
Excerpt: The eyes were kept on ice until used.
The upper part of the eye, including the cornea, iris, and lens, was removed with an orbital section. The vitreous body was removed to get access to the retina. The retina was rinsed three times with phosphate-buffered saline (PBS). Dye solutions were applied to the retina for 30 seconds, and the retina was then washed three times with PBS.
As an example of the visual impression of the stained retina, photos were taken. For photographic recording of the result of the staining, the staining was limited by applying a glass tube of a diameter of 10 mm. Care was taken that no dye could reach the cellular layer of the retina. […]
As an example of quantification, the pictures in FIGS. 1A-J were quantified by measuring the optical densities (expressed as grey values on a scale from 0 (black) to 255 (white)) of a rectangular area within the stained portion of the retina and a rectangular area outside the stained portion as background (ensuring that no blood vessels where present in the rectangular areas), and calculating the ratio of the grey values of the background to that of the stain. […] Toxicity was measured in ARPE cells. […] Toxicity is expressed as percent reduction of cell viability in comparison to a control incubated with PBS instead of the dye solution.

[3] = 10 volume % of 0.5 M solution added, final concentration 0.05 M
[4] = 20 volume % of 0.5 M solution added, final concentration 0.10 M

**Q.** Which viscosity ([1]; 5% addition of 0.5 M solution) does the source give for `O=C([O-])CN(CCN(CC(=O)[O-])CC(=O)O)CCN(CC(=O)[O-])CC(=O)O.[Gd+3]` [gadopentetate] here?
**A.** Its viscosity is 1.117 mPa·s.

**Q.** What about the viscosity [1, 3] of the same compound?
**A.** Its viscosity is 1.125 mPa·s.

**Q.** What about the viscosity [1, 4] of the same compound?
**A.** The viscosity was 1.258 mPa·s.

**Q.** What about the density (Density of dye solutions; 5% addition of 0.5 M solution) of the same compound?
**A.** Its density is 1.016 gram per milliliter.

**Q.** What about the density (Density of dye solutions; [3]) of the same compound?
**A.** Its density is 1.028 grams per milliliter.

**Q.** What about the density (Density of dye solutions; [4]) of the same compound?
**A.** Its density is 1.048 grams per milliliter.

**Q.** For `OCC(O)COCC(O)COCC(O)CO` (stereo not drawn) [triglycerol], which “osmotic pressure / osmotic activity” value [2] is on record?
**A.** Its value is “without increasing osmotic pressure substantially”.

**Q.** With `OCC(O)COCC(O)CO` (stereo not drawn) [diglycerol] as the compound, how does the viscosity ([1]; addition of 5 weight percent) read?
**A.** The viscosity was 1.191 mPa·s.

**Q.** What about the “effect of density agent on staining efficiency” value (retina) of the same compound?
**A.** The value was “does not decrease staining efficiency”.

**Q.** And the “osmotic pressure / osmotic activity” value [2]?
**A.** The value was “without increasing osmotic pressure substantially”.

**Q.** And the “osmotic pressure / osmotic activity” value ([2]; listed as DG)?
**A.** The value was “not even osmotically active”.

**Q.** And the density (Density of dye solutions; addition of 5 weight percent)?
**A.** Its density is 1.020 grams per milliliter.
